For data set [1] the following is noted: amine pH-buffers with low pKa values; cited from earlier work.
The conditions of data set [2]: cited from earlier work.
The nature of data set [3]: Partitioning in two-phase diethyl ether-water extraction. It is filed as physicochemical. The method, then:
This is a modification of Method A based on the partitioning behavior in a two-phase diethyl ether-water extraction. […] 53.4 g Purified and recrystallized N-(4-fluorobenzyl)-N-decylpyrrolidinium chloride (150 mmole, fw=355.97) is placed in a 250 mL separatory funnel followed by 53.4 g degassed, deionized water. The flask is shaken until a clear, viscous solution is formed (˜1.5 M solution). 25.6 g Trifluoroacetic (225 mmole, fw=114.02) is added to the mixture which is vigorously mixed. Immediately two phases form with the product in the lower layer. 110 mL peroxide-free diether ether is added to the separatory funnel and the mixture is vigorously mixed again. After 2 hours, the phases fully separate with the product in the upper ether phase. The lower phase is discarded and the upper is retained. 55 mL 1% trifluoroacetic acid in distilled water is added, the mixture is vigorously mixed and phases are again allowed to separate. Again, the upper phase is retained, dried over anhydrous magnesium sulfate, filtered and placed on a rotary evaporator in order to remove the ether along with residual HCl, trifluoroacetic acid and water. This procedure yields 59.2 g (91%) of a pure, clear, viscous oil (ionic liquid). This material is suitable for use as a displacer. HPLC purity of the quat cation is essentially identical to the starting material. […]

Data set [4] can be described thus: Hygroscopicity of crystalline salt in air. It is filed as physicochemical. The following applies: crystalline substance, absorbs moisture from the air. The procedure: 380.5 g Purified N-decylpyrrolidine (1.8 mole, fw=211.39) is added to 720 mL stirring acetonitrile in a 2 L, 4-neck round-bottom flask that is equipped with a heating mantle, mechanical stirrer, 500 mL addition funnel, reflux condensor and teflon-coated thermocouple. The reaction is carried out under a nitrogen atmosphere with a slow N2 purge. The stirring mixture is heated to 50° C., and 289.1 g freshly distilled 4-fluorobenzyl chloride (2.0 mole, fw=144.58) is added in a dropwise fashion over a period of about 60 minutes. The reaction mixture is then heated to about 80° C. for 8-12 hours and periodically monitored by HPLC (Method 10a) in order to ensure that the starting amine is entirely consumed. The reaction mixture is cooled to room temperature, filtered through sintered-glass and placed on a rotary evaporator to remove the solvent (acetonitrile). 1.0 L Methyl t-butyl ether (MTBE) is added portionwise with mechanical stirring to the sticky orange-yellow reaction residue. Once this mixture is fully suspended in the solvent, it is transferred to a clean 4 L Erlenmeyer flask, and an additional amount of MTBE (1.9 L) is slowly added with stirring. […] A sharp melting point in a glass capillary is measured at 137-138° C. when measured between 90-140° C. at the heating rate of 1.0° C./minute. […]

Data set [5] in a line: Solubility in water. The following applies: pure water.

The values below come from patent publication US20140284278A1, “CATIONIC DISPLACER MOLECULES FOR HYDROPHOBIC DISPLACEMENT CHROMATOGRAPHY” (SACHEM, INC., priority 2011, published 2014).

≈ marks a conversion by molar mass, not a printed value.

Broadly, the pKa is the negative logarithm of the acid dissociation constant. Take `CCN1CCNCC1` [N-ethylpiperazine]: in data set [1], the pKa is on record as 5.0.
Consider `C1CCCCC1` [cyclohexane], for which the solubility in water in data set [2] was about 0.01 mM (≈ 0.842 µg/mL).
In the case of `CN(C)CCN(C)C` [N,N,N′,N′-tetramethylethylene-diamine], the pKa in data set [1] is listed as 5.9.
Turning to `C1CC[C@H]2CCCC[C@@H]2C1` [trans-decalin], the solubility in water in data set [2] is under 0.001 mM.
As usually defined, the solubility is the dissolved amount per volume that the medium holds. A higher solubility goes with a readily soluble substance. `CCCCCCCCCC[N+]1(Cc2ccc(F)cc2)CCCC1.[Cl-]` [N-(4-Fluorobenzyl)-N-decylpyrrolidinium Chloride]: in data set [3], the partitioning behavior entry was “strongly partitions into the water layer”. The hygroscopicity entry in data set [4] is “very hygroscopic”. The compound further yielded a solubility in data set [5] of 2000 mM.
Regarding `c1ccc2ccccc2c1` [naphthalene], the solubility in water in data set [2] is 0.2 mM (≈ 25.6 µg/mL).
On to `CCCCCCCCCC[N+]1(Cc2ccc(F)cc2)CCCC1.O=C([O-])C(F)(F)F` [N-(4-Fluorobenzyl)-N-decylpyrrolidinium Trifluoroacetate], for which the partitioning behavior entry in data set [3] is reported as “strongly partitions into the ether layer”. The compound also registered a solubility in data set [5] of about 120 mM.
